According to ChEMBL document CHEMBL5385912, “Macrocycles and Acyclic Cucurbit[n]urils as Pseudo[2]catenane Partners for Long-Acting Neuromuscular Blocks and Rapid Reversal In Vivo” (J Med Chem, 2024):
Blank lines part the entries; values can stand above or below the compound they belong to. Calls of active or inactive are those of the source. No cut-off for these calls is given here.

How the values were obtained:
Rattus norvegicus [1] = assay: Neuromuscular blocking in Sprague-Dawley rat assessed as inhibition of electrical stimulation induced twitch amplitude at 0.8 mg/kg, iv; type: functional, organism-based
Erythrocyte [2] = assay: Hemolysis in human RBC; type: toxicity, cell-based
Rattus norvegicus [3] = assay: Neuromuscular blocking in Sprague-Dawley rat assessed as duration time to TOF ratio of 0.25 recovery at 2.4 mg/kg, iv; type: functional
H9c2 = assay: Cytotoxicity against rat H9C2 cells at 512 ug/ml incubated for 24 hrs by CCK8 assay; type: toxicity, cell-based; details: h9c2, 24 h, dose 512 µg/ml
Erythrocyte [4] = assay: Hemolysis in rat RBC; type: toxicity, cell-based
Rattus norvegicus [5] = assay: Neuromuscular blocking in Sprague-Dawley rat assessed as duration time to TOF ratio of 0.25 recovery at 1.6 mg/kg, iv; type: functional
L02 = assay: Cytotoxicity against L02 cells at 512 ug/ml incubated for 24 hrs by CCK8 assay; type: toxicity, cell-based; details: human, l02, 24 h, dose 512 µg/ml
[6] = Toxicity in Sprague-Dawley rat at 9 mg/kg, iv measured after 1 hr; type: organism-based; details: in vivo
Rattus norvegicus [7] = species: Rattus norvegicus; assay: Neuromuscular blocking in Sprague-Dawley rat assessed as inhibition of electrical stimulation induced twitch amplitude; type: functional
[8] = Solubility of compound in Na2HPO4/NaH2PO4 buffer; type: physicochemical
[9] = Toxicity in ICR mouse assessed as weight loss at 400 mg/kg, iv measured after 1 day; type: organism-based; details: in vivo, 24 h
[10] = Toxicity in ICR mouse assessed as heart abnormality at 200 to 400 mg/kg after 14 days by H and E staining based optical microscopic analysis; type: organism-based; details: in vivo, 336 h, dose 200-400 mg/kg, time 14 day
Rattus norvegicus [11] = assay: (§1) Reversal of 2,27-dioxa-11,18,36,43-tetraza-8,21,33,46-tetrazoniaundecacyclo[46.2.2.23,6.213,16.223,26.228,31.238,41.18,11.118,21.133,36.143,46]hexahexaconta-1(50),3,5,8(64),9,13(63),14,16(62),19,21(61),23,25,28,30,33(56),34,38,40,44,46(53),48,51,54,57,59,65-hexacosaene tetrachloride induced neuromuscular block in Sprague-Dawley rat assessed as recovery time at 50 mg/kg, iv after 1 min; type: functional
Rattus norvegicus [12] = assay: as §1, with “at 20” for “at 50”, “iv” for “iv after 1 min”; type: functional
[13] = Toxicity in ICR mouse assessed as spleen abnormality at 200 to 400 mg/kg after 14 days by H and E staining based optical microscopic analysis; type: organism-based; details: in vivo, 336 h, dose 200-400 mg/kg, time 14 day
[14] = Toxicity in ICR mouse assessed as kidney abnormality at 200 to 400 mg/kg after 14 days by H and E staining based optical microscopic analysis; type: organism-based; details: in vivo, 336 h, dose 200-400 mg/kg, time 14 day
[15] = Solubility of compound in phosphate buffer; type: physicochemical
Rattus norvegicus [16] = assay: as §1, with “at 10” for “at 50”, “iv” for “iv after 1 min”; type: functional
[17] = Toxicity in ICR mouse assessed as lung abnormality at 200 to 400 mg/kg after 14 days by H and E staining based optical microscopic analysis; type: organism-based; details: in vivo, 336 h, dose 200-400 mg/kg, time 14 day
[18] = Toxicity in ICR mouse assessed as liver abnormality at 200 to 400 mg/kg after 14 days by H and E staining based optical microscopic analysis; type: organism-based; details: in vivo, 336 h, dose 200-400 mg/kg, time 14 day
[19] = Toxicity in ICR mouse assessed as maximal tolerated dose; details: in vivo
Rattus norvegicus [20] = assay: as §1, with “at 2.5” for “at 50”, “iv” for “iv after 1 min”; type: functional
Rattus norvegicus [21] = assay: Neuromuscular blocking in Sprague-Dawley rat assessed as duration time to TOF ratio of 0.25 recovery at 3.5 mg/kg, iv; type: functional
Rattus norvegicus [22] = assay: as §1, with “at 0.36” for “at 50”, “iv” for “iv after 1 min”; type: functional

Compound: c1cc2ccc1C[n+]1ccc(cc1)-c1cc[n+](cc1)Cc1ccc(cc1)C[n+]1ccc(cc1)-c1cc[n+](cc1)C2
Activity (Rattus norvegicus [1]): inactive

solubility [8]: 78 mg/mL
Compound: [Cl-].[Cl-].[Cl-].[Cl-].c1cc2ccc1Cn1cc[n+](c1)Cc1ccc(cc1)Oc1ccc(cc1)C[n+]1ccn(c1)Cc1ccc(cc1)Cn1cc[n+](c1)Cc1ccc(cc1)Oc1ccc(cc1)C[n+]1ccn(c1)C2
Activity (Erythrocyte [2]): Non-Toxic | Time (Rattus norvegicus [3]): 4965 s | Activity (H9c2): Non-Toxic | Activity (Erythrocyte [4]): Non-Toxic | Time (Rattus norvegicus [5]): 1785 s | Activity (L02): Non-Toxic | Activity [6]: Non-Toxic | ED90 (Rattus norvegicus [7]): 0.8 mg/kg

Compound: C[C@]12N3Cc4c(c(OCCCC(=O)[O-])c5ccccc5c4OCCCC(=O)[O-])CN1C(=O)N1CN4C(=O)N5CN6C(=O)N7CN8C(=O)N9Cc%10c(c(OCCCC(=O)[O-])c%11ccccc%11c%10OCCCC(=O)[O-])CN%10C(=O)N(CN%11C(=O)N(CN%12C(=O)N(CN(C3=O)[C@]12C)[C@@H]4[C@H]%125)[C@@H]6[C@H]%117)[C@]8(C)[C@@]9%10C.[Na+].[Na+].[Na+].[Na+]
Activity [9]: Toxic | Activity (Erythrocyte [2]): Non-Toxic | Activity (H9c2): Non-Toxic | Activity [10]: Non-Toxic | Activity (Erythrocyte [4]): Non-Toxic | Activity (Rattus norvegicus [11]): 100% | Time (Rattus norvegicus [12]): 17 s | Activity [13]: Non-Toxic | Activity [14]: Non-Toxic | solubility [15]: 293 mg/mL | Time (Rattus norvegicus [16]): 16 s | Activity [17]: Non-Toxic | Activity (L02): Non-Toxic | Activity [18]: Non-Toxic | MTD [19]: 550 mg/kg | Time (Rattus norvegicus [20]): 205 s

Compound: COc1ccc(Cn2cc[n+](Cc3ccc(C[n+]4ccn(Cc5ccc(OC)cc5)c4)cc3)c2)cc1
Activity (Rattus norvegicus [1]): inactive

Compound: c1ccc(C[n+]2ccn(Cc3ccc(Oc4ccc(Cn5cc[n+](Cc6ccccc6)c5)cc4)cc3)c2)cc1
Activity (Rattus norvegicus [1]): inactive

Compound: C=CC[N+]1([C@H]2C[C@H]3[C@@H]4CC[C@H]5C[C@H](O)[C@@H](N6CCOCC6)C[C@]5(C)[C@H]4CC[C@]3(C)[C@H]2OC(C)=O)CCCC1 [ROCURONIUM]
Time (Rattus norvegicus [21]): 497 s

Compound: O=C(O)CCSC[C@H]1O[C@@H]2O[C@H]3[C@H](O)[C@@H](O)[C@@H](O[C@H]4[C@H](O)[C@@H](O)[C@@H](O[C@H]5[C@H](O)[C@@H](O)[C@@H](O[C@H]6[C@H](O)[C@@H](O)[C@@H](O[C@H]7[C@H](O)[C@@H](O)[C@@H](O[C@H]8[C@H](O)[C@@H](O)[C@@H](O[C@H]9[C@H](O)[C@@H](O)[C@@H](O[C@H]1[C@H](O)[C@H]2O)O[C@@H]9CSCCC(=O)O)O[C@@H]8CSCCC(=O)O)O[C@@H]7CSCCC(=O)O)O[C@@H]6CSCCC(=O)O)O[C@@H]5CSCCC(=O)O)O[C@@H]4CSCCC(=O)O)O[C@@H]3CSCCC(=O)O
Time (Rattus norvegicus [12]): 1175 s

solubility [8]: 21 mg/mL
Compound: [Cl-].[Cl-].[Cl-].[Cl-].c1cc2ccc1Cn1cc[n+](c1)Cc1ccc(cc1)-c1ccc(cc1)C[n+]1ccn(c1)Cc1ccc(cc1)Cn1cc[n+](c1)Cc1ccc(cc1)-c1ccc(cc1)C[n+]1ccn(c1)C2
ED90 (Rattus norvegicus [7]): 1.07 mg/kg | Activity (Rattus norvegicus [1]): inactive

Compound: CN(C)C(=O)Oc1cccc([N+](C)(C)C)c1 [NEOSTIGMINE]
Time (Rattus norvegicus [22]): 694 s

solubility [15]: 400 mg/mL
Compound: Cc1c(C)c(OCCCC(=O)[O-])c2c(c1OCCCC(=O)[O-])CN1C(=O)N3CN4C(=O)N5CN6C(=O)N7CN8C(=O)N9Cc%10c(c(OCCCC(=O)[O-])c(C)c(C)c%10OCCCC(=O)[O-])CN%10C(=O)N(CN%11C(=O)N(CN%12C(=O)N(CN%13C(=O)N(C2)[C@]1(C)[C@]%133C)[C@@H]4[C@@H]5%12)[C@@H]6[C@@H]7%11)[C@]8(C)[C@]%109C.[Na+].[Na+].[Na+].[Na+]
Time (Rattus norvegicus [16]): 16 s | Time (Rattus norvegicus [20]): 259 s

solubility [15]: 549 mg/mL
Compound: C[C@]12N3Cc4c(OCCCC(=O)[O-])ccc(OCCCC(=O)[O-])c4CN1C(=O)N1CN4C(=O)N5CN6C(=O)N7CN8C(=O)N9Cc%10c(OCCCC(=O)[O-])ccc(OCCCC(=O)[O-])c%10CN%10C(=O)N(CN%11C(=O)N(CN%12C(=O)N(CN(C3=O)[C@]12C)[C@@H]4[C@H]%125)[C@@H]6[C@H]%117)[C@]8(C)[C@@]9%10C.[Na+].[Na+].[Na+].[Na+]
Time (Rattus norvegicus [16]): 18 s | Time (Rattus norvegicus [20]): 411 s

solubility [8]: 58 mg/mL
Compound: [Cl-].[Cl-].[Cl-].[Cl-].c1cc2ccc1Cc1ccc(cc1)C[n+]1ccn(c1)Cc1ccc(cc1)Cn1cc[n+](c1)Cc1ccc(cc1)Cc1ccc(cc1)C[n+]1ccn(c1)Cc1ccc(cc1)Cn1cc[n+](c1)C2
ED90 (Rattus norvegicus [7]): 1.16 mg/kg | Activity (Rattus norvegicus [1]): inactive

Compound: c1cc2ccc1Cn1cc[n+](c1)Cc1ccc(cc1)C[n+]1ccn(c1)Cc1ccc(cc1)O2
Activity (Rattus norvegicus [1]): inactive

solubility [15]: 29.5 mg/mL
Compound: C[C@]12N3Cc4c(c(OCCCS(=O)(=O)[O-])c5ccccc5c4OCCCS(=O)(=O)[O-])CN1C(=O)N1CN4C(=O)N5CN6C(=O)N7CN8C(=O)N9Cc%10c(c(OCCCS(=O)(=O)[O-])c%11ccccc%11c%10OCCCS(=O)(=O)[O-])CN%10C(=O)N(CN%11C(=O)N(CN%12C(=O)N(CN(C3=O)[C@]12C)[C@@H]4[C@H]%125)[C@@H]6[C@H]%117)[C@]8(C)[C@@]9%10C.[Na+].[Na+].[Na+].[Na+]
Time (Rattus norvegicus [16]): 18 s | Time (Rattus norvegicus [20]): 215 s
